Measured values as given in patent US20060166941A1, “Treatment and/or prevention of non-viral epithelial damage” (Epistem Limited, priority 2003, published 2006).
Values joined by “and” are separate entries in the source; they are usually repeats but may differ in a detail not shown here. Equal entries are not always repeated. Structures can show the parent of a compound that is named as a salt.

Experiments:
Design in all cases: species or system mice
[1] = tested on: clonogenic stem cells of the digestive epithelium; assay: In vivo protection of intestinal epithelium clonogenic stem cells, radiation damage, independent experiment 1 (regenerating crypts); settings: for corrected crypts/circumference / no. crypts/circumference: day 4; for Protection Factor: 13Gy, corrected crypts treated / vehicle
Description: In Vivo Protection of Intestinal Epithelium Clonogenic Stem Cells—Radiation Damage Independent Experiment 1.
(§1) The ability of foscarnet (phosphonoformic acid trisodium salt hexahydrate) to prevent radiological damage to clonogenic stem cells of the digestive epithelium was illustrated by the following experiment.
(§2) The model of radiological insult used was treatment with 13 Gy X-ray whole body radiation at a dose rate of 0.7 Gy/minute. Such radiation treatment provides a model of radiotherapy administered to patients undergoing treatment for cancer.
Four experimental groups, each of six mice, were established as set out below:
(§3) Group 1: Received intra-peritoneal injection, containing 50 mg foscarnet/kilogram bodyweight, in sterile water, one hour prior to radiation treatment. Received one further identical injection on each of the three days following radiation treatment.
Group 2: Received intra-peritoneal injection, containing 100 mg foscarnet/kilogram bodyweight, in sterile water, one hour prior to radiation treatment. Received one further identical injection on each of the three days following radiation treatment.
(§4) Group 3: Vehicle control. Received intra-peritoneal injection, of sterile water, one hour prior to radiation treatment. Received one further identical injection on each of the three days following radiation treatment.
Group 4: Untreated controls. Received neither injections nor exposure to radiation.
(§5) On the fourth day after treatment the animals of each group were killed, and intestinal tissue harvested for histological analysis. Tissue sections were stained with haemotoxylin and eosin, and were analysed for the presence of regenerating intestinal crypts. Regenerating intestinal crypts are derived from one or more surviving clonogenic stem cells, whereas sterilised crypts (containing no surviving stem cells) disappear within two days of irradiation. The number of regenerating crypts per intestinal circumference was counted, and the mean crypt width measured. Scores for each animal were then corrected to account for the probability of preferentially scoring larger crypts according to the following equation: [formula]
(§6) For each treatment a Protection Factor was calculated using the following equation: corrected crypts/circumference treated corrected crypts/circumference untreated (vehicle)

[2] = tested on: clonogenic stem cells of the digestive epithelium; assay: In vivo protection of intestinal epithelium clonogenic stem cells, radiation damage, independent experiment 2; settings: for corrected crypts/circumference / no. crypts/circumference: day 4; for Protection Factor: 13Gy, corrected crypts treated / vehicle
Description: In Vivo Protection of Intestinal Epithelium Clonogenic Stem Cells—Radiation Damage Independent Experiment 2.
as §1, §2
Three experimental groups, each of six mice, were established as set out below:
as §3
Group 2: Received intra-peritoneal injection, containing 25 mg foscarnet/kilogram bodyweight, in sterile water, one hour prior to radiation treatment. Received one further identical injection on each of the three days following radiation treatment.
as §4, §5, §6

[3] = tested on: clonogenic stem cells of the digestive epithelium; assay: In vivo protection of intestinal epithelium clonogenic stem cells, chemotherapy drug damage, independent experiment 2
Experimental: In Vivo Protection of Intestinal Epithelium Clonogenic Stem Cells—Chemotherapy Drug Damage—Independent Experiment 2.
The data presented in Example 4 were expanded in the following study, in which the ability of foscarnet (phosphonoformic acid trisodium salt hexahydrate) to prevent cytotoxic damage to clonogenic stem cells of the digestive epithelium was investigated using the following experiment.
The model of cytotoxic insult used was treatment with 2 doses of 5-Flurouracil 6 hours apart at 400 mg of 5-Fluorouracil/kilogram bodyweight. Such cytotoxic treatment provides a model of chemotherapy administered to patients undergoing treatment for cancer.
8 experimental groups, each of six mice, were established as set out below:
Group 1: Received intra-peritoneal injection, containing 50 mg foscarnet/kilogram bodyweight, in sterile water, one hour prior to the first cytotoxic treatment. Received one further identical injection on each of the three days following cytotoxic treatment.
Group 2: Received intra-peritoneal injection, containing 50 mg foscarnet/kilogram bodyweight, in sterile water, one hour prior to the first cytotoxic treatment.
Group 3: Received intra-peritoneal injection, containing 50 mg foscarnet/kilogram bodyweight, in sterile water on each of the three days following cytotoxic treatment.
Group 4: Received intra-peritoneal injection, containing 50 mg foscarnet/kilogram bodyweight, in sterile water, 5 minutes prior to the first cytotoxic treatment. Received one further identical injection on each of the three days following cytotoxic treatment.
Group 5: Vehicle control. Received intra-peritoneal injection, of sterile water, one hour prior to the first cytotoxic treatment. Received one further identical injection on each of the days following cytotoxic treatment.
Group 6: Vehicle control. Received intra-peritoneal injection, of sterile water, one hour prior to the first cytotoxic treatment.
Group 7: Vehicle control. Received intra-peritoneal injection, of sterile water, on each of the three days following cytotoxic treatment.
Group 8: Vehicle control. Received intra-peritoneal injection, of sterile water, 5 minutes prior to the first cytotoxic treatment. Received one further identical injection on each of the three days following cytotoxic treatment.
as §5, §6

[4] = 13Gy plus 50 mg foscarnet -1 hr, 1, 2, 3 day, group Average
[5] = 13Gy plus 50 mg foscarnet -1 hr, 1, 2, 3 day, individual mice
[6] = 13Gy plus 100 mg foscarnet -1 hr, 1, 2, 3 day, group Average
[7] = 13Gy plus 100 mg foscarnet -1 hr, 1, 2, 3 day, individual mice
[8] = 50 mg foscarnet -1 hr, 1, 2, 3 day
[9] = 13Gy plus 25 mg foscarnet -1 hr, 1, 2, 3 day, group Average
[10] = 13Gy plus 25 mg foscarnet -1 hr, 1, 2, 3 day, individual mice
[11] = 400 mg/kg 5FU x 2 6 hours apart plus 50 mg foscarnet/kg -5 minutes, D1, D2, D3, group Ave
[12] = 400 mg/kg 5FU x 2 6 hours apart plus 50 mg foscarnet/kg -5 minutes, D1, D2, D3, individual mice
[13] = 400 mg/kg 5FU x 2 6 hours apart plus 50 mg foscarnet/kg -1 hr only, group Ave
[14] = 400 mg/kg 5FU x 2 6 hours apart plus 50 mg foscarnet/kg -1 hr only, individual mice
[15] = 400 mg/kg 5FU x 2 6 hours apart plus 50 mg foscarnet/kg -1 hr, D1, D2, D3, group Ave
[16] = 400 mg/kg 5FU x 2 6 hours apart plus 50 mg foscarnet/kg -1 hr, D1, D2, D3, individual mice
[17] = 400 mg/kg 5FU x 2 6 hours apart plus 50 mg foscarnet/kg D1, D2, D3, group Ave
[18] = 400 mg/kg 5FU x 2 6 hours apart plus 50 mg foscarnet/kg D1, D2, D3, individual mice
[19] = group 1: 50 mg/kg foscarnet 1 hr prior to first 5-Flurouracil dose (400 mg/kg x 2) and 3 days after

`O=C(O)P(=O)(O)O` [foscarnet, phosphonoformic acid trisodium salt hexahydrate] was tested, and the corrected crypts/circumference [1, 4] was 3.8, the no. crypts/circumference [1, 4] was 6.8 and the corrected crypts/circumference [1, 5] was 2.6 and 6.1 and 3.6 and 4.3 and 2.5. For the same molecule, the no. crypts/circumference [1, 5] was 4.8 and 10.7 and 6.6 and 7.2 and 4.5, the corrected crypts/circumference [1, 6] was 3.2 and the no. crypts/circumference [1, 6] was 5.6. The corrected crypts/circumference [1, 7] was 3.0 and 3.6 and 2.5 and 2.1 and 4.8, the no. crypts/circumference [1, 7] was 5.5 and 6.4 and 4.3 and 3.8 and 8.0 and the “Protection Factor” value [1, 8] was 1.52. The “more crypts compared to mice treated with vehicle alone” value (“more crypts compared to mice treated” below) ([1]; 13 Gy, 50 mg/kg foscarnet) was about 50%, the “more small intestinal clonogenic stem cells survived” value ([1]; 13 Gy, 50 mg/kg foscarnet) was “at least 50%” and the “Protection Factor” value ([1]; 100 mg foscarnet -1 hr, 1, 2, 3 day) was 1.28. The “numbers of intestinal crypts after exposure to radiation” value ([1]; Groups 1 and 2 (50 mg foscarnet and 100 mg foscarnet), 13 Gy) was “increased numbers of intestinal crypts”, the corrected crypts/circumference [2, 9] was 2.8 and the no. crypts/circumference [2, 9] was 5.7. For the same molecule, the corrected crypts/circumference [2, 10] was 1.4 and 2.0 and 2.7 and 4.4 and 3.0 and 3.3, the no. crypts/circumference [2, 10] was 2.6 and 4.1 and 5.4 and 9.4 and 6.3 and 6.4 and the corrected crypts/circumference [2, 4] was 4.7. For the same molecule, the no. crypts/circumference [2, 4] was 8.8, the corrected crypts/circumference [2, 5] was 6.5 and 4.4 and 2.7 and 1.9 and 5.4 and 7.5 and the no. crypts/circumference [2, 5] was 11.8 and 8.7 and 5.2 and 4.1 and 9.6 and 13.2. The “Protection Factor” value ([2]; 25 mg foscarnet -1 hr, 1, 2, 3 day) was 1.12, the “Protection Factor” value [2, 8] was 1.88 and the “more crypts compared to mice treated” value ([2]; 13 Gy, 50 mg/kg foscarnet) was about 50%. For the same molecule, the “more small intestinal clonogenic stem cells survived” value ([2]; 13 Gy, 50 mg/kg foscarnet) was “at least 50%”, the “numbers of intestinal crypts after exposure to radiation” value ([2]; Groups 1 and 2 (50 mg foscarnet and 25 mg foscarnet), 13 Gy) was “increased numbers of intestinal crypts” and the “Protection Factor” value ([3]; 50 mg foscarnet/kg 5 minutes prior to 1st dose of 5-Flurouracil (400 mg/kg x 2 6 hrs apart) and D1, D2 & D3) was 1.11. The “Protection Factor” value ([3]; 50 mg foscarnet/kg 1 hr prior to 1st dose of 5-Flurouracil (400 mg/kg x 2 6 hrs apart)) was 1.12, the “Protection Factor” value ([3]; 50 mg foscarnet/kg 1 hr prior to 1st dose of 5-Flurouracil (400 mg/kg x 2 6 hrs apart) and D1, D2 & D3) was 1.62 and the “Protection Factor” value ([3]; 50 mg foscarnet/kg D1, D2, D3 following 5-Flurouracil (400 mg/kg x 2 6 hrs apart)) was 1.13. The corrected crypts/circumference [3, 11] was 25.12, the no. crypts/circumference [3, 11] was 26.97 and the corrected crypts/circumference [3, 12] was 13.01 and 39.74 and 38.64 and 15.78 and 24.39 and 19.14. The no. crypts/circumference [3, 12] was 13.20 and 46.50 and 40.10 and 16.30 and 24.30 and 21.40, the corrected crypts/circumference [3, 13] was 22.70 and the no. crypts/circumference [3, 13] was 24.62. The corrected crypts/circumference [3, 14] was 35.09 and 16.52 and 22.90 and 30.41 and 11.28 and 20.01, the no. crypts/circumference [3, 14] was 42.50 and 16.20 and 24.70 and 32.80 and 11.70 and 19.80 and the corrected crypts/circumference [3, 15] was 29.76. The no. crypts/circumference [3, 15] was 31.28, the corrected crypts/circumference [3, 16] was 42.10 and 17.28 and 33.67 and 29.92 and 31.88 and 23.71 and the no. crypts/circumference [3, 16] was 44.90 and 16.00 and 35.70 and 32.50 and 34.30 and 24.30. The corrected crypts/circumference [3, 17] was 19.78, the no. crypts/circumference [3, 17] was 19.58 and the corrected crypts/circumference [3, 18] was 13.74 and 9.34 and 35.87 and 23.12 and 21.45 and 15.14. The no. crypts/circumference [3, 18] was 14.10 and 8.50 and 35.50 and 24.10 and 19.20 and 16.10, the “numbers of intestinal crypts after exposure to 5-Flurouracil” value ([3]; Groups 1, 2, 3 and 4 (50 mg foscarnet/kg regimens)) was “increased numbers of intestinal crypts” and the “more crypts compared to mice treated” value [3, 19] was about 50%. For the same molecule, the “more small intestinal clonogenic stem cells survived” value [3, 19] was “at least 50%”.
